Test results reported in ChEMBL document CHEMBL1152864, “Synthesis and anti-inflammatory activity of newer quinazolin-4-one derivatives” (Eur J Med Chem, 2009).

Test system: Rattus norvegicus
Experiment: Antiinflammatory activity in Charles-Foster albino rat assessed as inhibition of carrageenan-induced hind paw edema at 100 mg/kg, po relative to control
Assay type: functional
Details: not given

Row | Structure (SMILES) | inhibition in vivo at 100 mg/kg
1 | O=C1CSC(c2ccc(Cl)cc2)N1n1c(CSc2nnc(-c3ccncc3)o2)nc2ccc(Br)cc2c1=O (stereo not drawn) | 66.9%
2 | CCCCC1C(=O)N(c2ccccc2)N(c2ccccc2)C1=O [PHENYLBUTAZONE] | 66.4%

Test system: Rattus norvegicus
Experiment: Antiinflammatory activity in Charles-Foster albino rat assessed as inhibition of carrageenan-induced hind paw edema at 25 mg/kg, po relative to control
Assay type: functional
Details: not given

Row | Structure (SMILES) | inhibition in vivo at 25 mg/kg
3 | O=C1CSC(c2ccc(Cl)cc2)N1n1c(CSc2nnc(-c3ccncc3)o2)nc2ccc(Br)cc2c1=O (stereo not drawn) | 25.2%
4 | CCCCC1C(=O)N(c2ccccc2)N(c2ccccc2)C1=O [PHENYLBUTAZONE] | 25.4%

Test system: Rattus norvegicus
Experiment: Antiinflammatory activity in Charles-Foster albino rat assessed as inhibition of carrageenan-induced hind paw edema at 50 mg/kg, po relative to control
Assay type: functional
Details: not given

Row | Structure (SMILES) | inhibition in vivo at 50 mg/kg
5 | COc1ccc(C2SCC(=O)N2n2c(CSc3nnc(-c4ccncc4)o3)nc3ccc(Br)cc3c2=O)cc1 (stereo not drawn) | 35.3%
6 | O=C1CSC(c2ccc(O)cc2)N1n1c(CSc2nnc(-c3ccncc3)o2)nc2ccc(Br)cc2c1=O (stereo not drawn) | 32.7%
7 | O=C1C(Cl)C(c2ccc(Cl)cc2)N1n1c(CSc2nnc(-c3ccncc3)o2)nc2ccc(Br)cc2c1=O (stereo not drawn) | 29.9%
8 | COc1ccc(C2C(Cl)C(=O)N2n2c(CSc3nnc(-c4ccncc4)o3)nc3ccc(Br)cc3c2=O)cc1 (stereo not drawn) | 28.6%
9 | O=c1c2ccccc2nc(CSc2nnc(-c3ccncc3)o2)n1/N=C/c1ccccc1 | 16.3%
10 | O=c1c2ccccc2nc(CSc2nnc(-c3ccncc3)o2)n1/N=C/c1ccc(Cl)cc1 | 23.7%
11 | O=C1C(Cl)C(c2ccc(O)cc2)N1n1c(CSc2nnc(-c3ccncc3)o2)nc2ccccc2c1=O (stereo not drawn) | 25.7%
12 | O=C1CSC(c2ccc(O)cc2)N1n1c(CSc2nnc(-c3ccncc3)o2)nc2ccccc2c1=O (stereo not drawn) | 31.7%
13 | COc1ccc(/C=N/n2c(CSc3nnc(-c4ccncc4)o3)nc3ccc(Br)cc3c2=O)cc1 | 24.4%
14 | O=C1CSC(c2ccccc2)N1n1c(CSc2nnc(-c3ccncc3)o2)nc2ccc(Br)cc2c1=O (stereo not drawn) | 31.3%
15 | O=C1CSC(c2ccc(Cl)cc2)N1n1c(CSc2nnc(-c3ccncc3)o2)nc2ccc(Br)cc2c1=O (stereo not drawn) | 25.2%
16 | O=C1CSC(c2ccccc2)N1n1c(CSc2nnc(-c3ccncc3)o2)nc2ccccc2c1=O (stereo not drawn) | 30.1%
17 | COc1ccc(C2SCC(=O)N2n2c(CSc3nnc(-c4ccncc4)o3)nc3ccccc3c2=O)cc1 (stereo not drawn) | 33.8%
18 | COc1ccc(/C=N/n2c(CSc3nnc(-c4ccncc4)o3)nc3ccccc3c2=O)cc1 | 20%
19 | O=c1c2cc(Br)ccc2nc(CSc2nnc(-c3ccncc3)o2)n1/N=C/c1ccc(O)cc1 | 22.3%
20 | O=C1C(Cl)C(c2ccccc2)N1n1c(CSc2nnc(-c3ccncc3)o2)nc2ccccc2c1=O (stereo not drawn) | 25.1%
21 | O=C1C(Cl)C(c2ccc(Cl)cc2)N1n1c(CSc2nnc(-c3ccncc3)o2)nc2ccccc2c1=O (stereo not drawn) | 27.9%
22 | O=c1c2cc(Br)ccc2nc(CSc2nnc(-c3ccncc3)o2)n1/N=C/c1ccc(Cl)cc1 | 26.4%
23 | O=C1C(Cl)C(c2ccc(O)cc2)N1n1c(CSc2nnc(-c3ccncc3)o2)nc2ccc(Br)cc2c1=O (stereo not drawn) | 27.4%
24 | O=c1c2ccccc2nc(CSc2nnc(-c3ccncc3)o2)n1/N=C/c1ccc(O)cc1 | 18.2%
25 | O=C1CSC(c2ccc(Cl)cc2)N1n1c(CSc2nnc(-c3ccncc3)o2)nc2ccccc2c1=O (stereo not drawn) | 34.1%
26 | O=c1c2cc(Br)ccc2nc(CSc2nnc(-c3ccncc3)o2)n1/N=C/c1ccccc1 | 19.4%
27 | O=C1C(Cl)C(c2ccccc2)N1n1c(CSc2nnc(-c3ccncc3)o2)nc2ccc(Br)cc2c1=O (stereo not drawn) | 26.3%
28 | COc1ccc(C2C(Cl)C(=O)N2n2c(CSc3nnc(-c4ccncc4)o3)nc3ccccc3c2=O)cc1 (stereo not drawn) | 26.1%
29 | CCCCC1C(=O)N(c2ccccc2)N(c2ccccc2)C1=O [PHENYLBUTAZONE] | 36.8%

Test system: not listed separately
Experiment: Acute toxicity in po dosed albino mouse
Assay type: organism-based
Details: in vivo, read-out: ALD50

Row | Structure (SMILES) | LD50
30 | COc1ccc(C2SCC(=O)N2n2c(CSc3nnc(-c4ccncc4)o3)nc3ccc(Br)cc3c2=O)cc1 (stereo not drawn) | > 1000 mg/kg
31 | O=C1CSC(c2ccc(O)cc2)N1n1c(CSc2nnc(-c3ccncc3)o2)nc2ccc(Br)cc2c1=O (stereo not drawn) | > 1000 mg/kg
32 | O=C1C(Cl)C(c2ccc(Cl)cc2)N1n1c(CSc2nnc(-c3ccncc3)o2)nc2ccc(Br)cc2c1=O (stereo not drawn) | > 1000 mg/kg
33 | COc1ccc(C2C(Cl)C(=O)N2n2c(CSc3nnc(-c4ccncc4)o3)nc3ccc(Br)cc3c2=O)cc1 (stereo not drawn) | > 1000 mg/kg
34 | O=c1c2ccccc2nc(CSc2nnc(-c3ccncc3)o2)n1/N=C/c1ccccc1 | > 1000 mg/kg
35 | O=c1c2ccccc2nc(CSc2nnc(-c3ccncc3)o2)n1/N=C/c1ccc(Cl)cc1 | > 1000 mg/kg
36 | O=C1C(Cl)C(c2ccc(O)cc2)N1n1c(CSc2nnc(-c3ccncc3)o2)nc2ccccc2c1=O (stereo not drawn) | > 1000 mg/kg
37 | O=C1CSC(c2ccc(O)cc2)N1n1c(CSc2nnc(-c3ccncc3)o2)nc2ccccc2c1=O (stereo not drawn) | > 1000 mg/kg
38 | COc1ccc(/C=N/n2c(CSc3nnc(-c4ccncc4)o3)nc3ccc(Br)cc3c2=O)cc1 | > 1000 mg/kg
39 | O=C1CSC(c2ccccc2)N1n1c(CSc2nnc(-c3ccncc3)o2)nc2ccc(Br)cc2c1=O (stereo not drawn) | > 1000 mg/kg
40 | O=C1CSC(c2ccc(Cl)cc2)N1n1c(CSc2nnc(-c3ccncc3)o2)nc2ccc(Br)cc2c1=O (stereo not drawn) | > 1000 mg/kg
41 | O=C1CSC(c2ccccc2)N1n1c(CSc2nnc(-c3ccncc3)o2)nc2ccccc2c1=O (stereo not drawn) | > 1000 mg/kg
42 | COc1ccc(C2SCC(=O)N2n2c(CSc3nnc(-c4ccncc4)o3)nc3ccccc3c2=O)cc1 (stereo not drawn) | > 1000 mg/kg
43 | COc1ccc(/C=N/n2c(CSc3nnc(-c4ccncc4)o3)nc3ccccc3c2=O)cc1 | > 1000 mg/kg
44 | O=c1c2cc(Br)ccc2nc(CSc2nnc(-c3ccncc3)o2)n1/N=C/c1ccc(O)cc1 | > 1000 mg/kg
45 | O=C1C(Cl)C(c2ccccc2)N1n1c(CSc2nnc(-c3ccncc3)o2)nc2ccccc2c1=O (stereo not drawn) | > 1000 mg/kg
46 | O=C1C(Cl)C(c2ccc(Cl)cc2)N1n1c(CSc2nnc(-c3ccncc3)o2)nc2ccccc2c1=O (stereo not drawn) | > 1000 mg/kg
47 | O=c1c2cc(Br)ccc2nc(CSc2nnc(-c3ccncc3)o2)n1/N=C/c1ccc(Cl)cc1 | > 1000 mg/kg
48 | O=C1C(Cl)C(c2ccc(O)cc2)N1n1c(CSc2nnc(-c3ccncc3)o2)nc2ccc(Br)cc2c1=O (stereo not drawn) | > 1000 mg/kg
49 | O=c1c2ccccc2nc(CSc2nnc(-c3ccncc3)o2)n1/N=C/c1ccc(O)cc1 | > 1000 mg/kg
50 | O=C1CSC(c2ccc(Cl)cc2)N1n1c(CSc2nnc(-c3ccncc3)o2)nc2ccccc2c1=O (stereo not drawn) | > 1000 mg/kg
51 | O=c1c2cc(Br)ccc2nc(CSc2nnc(-c3ccncc3)o2)n1/N=C/c1ccccc1 | > 1000 mg/kg
52 | O=C1C(Cl)C(c2ccccc2)N1n1c(CSc2nnc(-c3ccncc3)o2)nc2ccc(Br)cc2c1=O (stereo not drawn) | > 1000 mg/kg
53 | COc1ccc(C2C(Cl)C(=O)N2n2c(CSc3nnc(-c4ccncc4)o3)nc3ccccc3c2=O)cc1 (stereo not drawn) | > 1000 mg/kg
